Assay results from US20170202845A1, “PROPHYLACTIC OR THERAPEUTIC AGENT FOR A POSTERIOR OCULAR DISEASE” (SANTEN PHARMACEUTICAL CO., LTD., priority 2014, published 2017).

Test system: choroidal neovascularization
Experiment: laser-induced rat choroidal neovascularization model
Format: in vivo
Method: Usefulness of the present compounds was evaluated using a laser-induced rat choroidal neovascularization model (Invest. Ophthalmol. Vis. Sci., 40(2), 459-466 (1999)).
A rat was generally anesthetized by intramuscular administration of 1 mL/kg of a mixed solution (7:1) comprising a 5% (W/V) ketamine hydrochloride injection solution and a 2% xylazine hydrochloride injection solution. 0.5% (W/V) Tropicamide-0.5% phenylephrine hydrochloride eye drop was dropped into eyes for mydriasis, and photocoagulation was carried out with a krypton laser photocoagulation apparatus. […]
At the 7th day after the photocoagulation, the rat was generally anesthetized by intramuscular administration of 1 mL/kg of a mixed solution (7:1) comprising a 5% (W/V) ketamine hydrochloride injection solution and a 2% xylazine hydrochloride injection solution. […] The spot of photocoagulation with no leakage of fluorescence detected by fluorescein fundus angiography was judged as negative (no neovascularization), and the spot of photocoagulation with leakage of fluorescence was judged as positive. The spot of photocoagulation with slight leakage of fluorescence was judged as positive (neovascularization exists) when 2 or more spots of such a state were detected in one eye. […]

Question: How did the “Suppressing rate (%)” value (krypton laser-induced rat choroidal neovascularization, 100 mg/kg orally twice a day for 7 days, fluorescein fundus angiography at 7th day, relative to base administered group) turn out when `CC(=O)N[C@@H]1C[C@H](NC(C)(C)C)CC[C@@H]1N1CC[C@H](Nc2ncnc3cc(C(C)(C)C)nn23)C1=O` [Compound 1b, N-((1R,2S,5R)-5-(tert-butylamino)-2-((S)-3-(7-tert-butylpyrazolo[1,5-a][1,3,5]triazin-4-ylamino)-2-oxopyrrolidin-1-yl)cyclohexyl)acetamide] was run?
Answer: 66.6%

Question: What about the “inhibition of choroidal neovascularization (in words)” value (laser-induced rat choroidal neovascularization model animal) of the same molecule?
Answer: inhibit choroidal neovascularization
